Test results taken from patent EP1077677B1, “PROCESS FOR THE MANUFACTURE OF A BIOLOGICALLY ACTIVE COMPOSITION” (JAGOTEC AG, priority 1998, dated 1999).
Converted amounts (≈) assume the structure as drawn.

Experiment: physchem
Format: physicochemical
Settings: water
Protocol: In order to determine its water solubility, an excess of metronidazole was added to water, after which the mixture was stirred for 3 days at room temperature.

In the case of `Cc1ncc([N+](=O)[O-])n1CCO` [metronidazole], the solubility thermodynamic at 72 h is reported as 8200 µg/mL (≈ 47.9 mM).
